# Experimental data: the supplement of paper PMC6331611
# Where a name gives a salt, the structure may show the parent alone.
# Key:
# [1] = system: Salmonella enterica serovar Typhimurium SL1344
# [2] = system: Salmonella enterica serovar Typhimurium SL1344; experiment: intracellular MIC (10-fold luminescence reduction); higher = less potent; conditions: RAW264.7 macrophages
# RAW264.7 = experiment: cytotoxicity (LDH release relative to maximum lysis); higher = more toxic; conditions: 50 µM; 2 h
Compound,MIC ([1]; LPM pH 5.8) [µM],MIC ([1]; MHB) [µM],MIC ([1]; MOPS glucose minimal medium) [µM],intracellular MIC [2] [µM],cytotoxicity (RAW264.7) [%]
O=[N+]([O-])c1ccc(O)c2ncccc12 [NITROXOLINE],≤ 0.78,25,6.25,> 50,14.6
CCn1cc(C(=O)O)c(=O)c2cc(F)c(N3CCNCC3)cc21 [NORFLOXACIN],1.56,≤ 0.78,≤ 0.78,1.56,8.22
CO[C@@H]1[C@@H](OC(N)=O)[C@@H](O)[C@H](Oc2ccc3c(O)c(NC(=O)c4ccc(O)c(CC=C(C)C)c4)c(=O)oc3c2C)OC1(C)C [NOVOBIOCIN SODIUM],1.17,> 50,> 50,> 50,7.98
CC1COc2c(N3CCN(C)CC3)c(F)cc3c(=O)c(C(=O)O)cn1c23 (stereo not given) [OFLOXACIN],≤ 0.78,≤ 0.78,≤ 0.78,1.56,6.6
C[C@@H]1CN(c2c(F)c(F)c3c(=O)c(C(=O)O)cn(C4CC4)c3c2F)C[C@H](C)N1 [ORBIFLOXACIN],3.13,3.13,≤ 0.78,≤ 0.78,15.3
CCn1cc(C(=O)O)c(=O)c2cc3c(cc21)OCO3 [OXOLINIC ACID],1.56,3.13,≤ 0.78,1.56,6.86
COc1ccc(C(=O)c2ccccc2)c(O)c1 [OXYBENZONE],> 50,> 50,> 50,1.56,6.44
CN(C)[C@@H]1C(O)=C(C(N)=O)C(=O)[C@@]2(O)C(O)=C3C(=O)c4c(O)cccc4[C@@](C)(O)[C@H]3[C@H](O)[C@@H]12 [OXYTETRACYCLINE],≤ 0.78,6.25,12.5,6.25,15.7
C[C@H]1COc2c(C3(N)CC3)c(F)cc3c(=O)c(C(=O)O)cn1c23 [PAZUFLOXACIN MESYLATE],≤ 0.78,≤ 0.78,≤ 0.78,≤ 0.78,12.2
CCn1cc(C(=O)O)c(=O)c2cc(F)c(N3CCN(C)CC3)cc21 [PEFLOXACINE MESYLATE],≤ 0.78,≤ 0.78,≤ 0.78,1.56,20.7
O=C(O)CN(CCN(CC(=O)O)CC(=O)O)CCN(CC(=O)O)CC(=O)O [PENTETIC ACID],≤ 0.78,> 50,> 50,1.56,7.12
CNC[C@H](O)c1cccc(O)c1 [PHENYLEPHRINE HYDROCHLORIDE],> 50,> 50,> 50,≤ 0.78,6.89
CC(=O)[O][Hg][c]1ccccc1 [PHENYLMERCURIC ACETATE],≤ 0.78,≤ 0.78,≤ 0.78,≤ 0.78,22.2
CNC(=O)Oc1ccc2c(c1)[C@]1(C)CCN(C)[C@@H]1N2C [PHYSOSTIGMINE SALICYLATE],12.5,> 50,> 50,≤ 0.78,7.34
CC[C@@H]1C(=O)OC[C@@H]1Cc1cncn1C [PILOCARPINE NITRATE],> 50,> 50,> 50,≤ 0.78,7.24
CC(C)NCC(O)COc1cccc2[nH]ccc12 (stereo not given) [PINDOLOL],> 50,> 50,> 50,1.56,7.73
CCN1CCN(C(=O)N[C@@H](C(=O)N[C@@H]2C(=O)N3[C@@H]2SC(C)(C)[C@@H]3C(=O)O)c2ccccc2)C(=O)C1=O [PIPERACILLIN SODIUM],3.13,12.5,6.25,3.13,7.66
Cc1cc(CC(C)CC(C)(C)C)n(O)c(=O)c1 (stereo not given) [PIROCTONE OLAMINE],≤ 0.78,≤ 0.78,≤ 0.78,≤ 0.78,20.8
Cc1oc(=O)oc1CN1CCN(c2cc3c(cc2F)c(=O)c(C(=O)O)c2n3C(C)S2)CC1 (stereo not given) [PRULIFLOXACIN],≤ 0.78,≤ 0.78,≤ 0.78,≤ 0.78,13.2

Compound,MIC ([1]; LPM pH 5.8) [µM],MIC ([1]; MHB) [µM],MIC ([1]; MOPS glucose minimal medium) [µM],intracellular MIC [2] [µM],cytotoxicity (RAW264.7) [%]
CN(C)C(=O)Oc1ccc[n+](C)c1 [PYRIDOSTIGMINE BROMIDE],> 50,> 50,> 50,> 50,6.09
[O-][n+]1ccccc1[S-].[O-][n+]1ccccc1[S-].[Zn+2] [PYRITHIONE ZINC],≤ 0.78,3.13,3.13,3.13,84.4
CO[C@H]1/C=C/O[C@@]2(C)Oc3c(C)c(O)c4c(O)c(c(/C=N/N5CCN(C)CC5)c(O)c4c3C2=O)NC(=O)/C(C)=C\C=C\[C@H](C)[C@H](O)[C@@H](C)[C@@H](O)[C@@H](C)[C@H](OC(C)=O)[C@@H]1C [RIFAMPIN],3.13,50,25,≤ 0.78,8.58
CO[C@H]1/C=C/O[C@@]2(C)Oc3c(C)c(O)c4c(O)c(c5c(nc6cc(C)ccn65)c4c3C2=O)NC(=O)/C(C)=C\C=C\[C@H](C)[C@H](O)[C@@H](C)[C@@H](O)[C@@H](C)[C@H](OC(C)=O)[C@@H]1C [RIFAXIMIN],6.25,12.5,25,12.5,6.48
CN1CCN(c2c(F)cc3c(=O)c(C(=O)O)cn4c3c2SCC4)CC1 [RUFLOXACIN HYDROCHLORIDE],6.25,1.56,≤ 0.78,≤ 0.78,13.3
C[n+]1cc2c3c(ccc2c2ccc4cc5c(cc4c21)OCO5)OCO3 [SANGUINARINE SULFATE],> 50,> 50,> 50,25,34.2
O=C(O)c1cn(-c2ccc(F)cc2)c2cc(N3CCNCC3)c(F)cc2c1=O [SARAFLOXACIN HYDROCHLORIDE],≤ 0.78,≤ 0.78,≤ 0.78,≤ 0.78,21.5
CN[C@H]1CC[C@@H](c2ccc(Cl)c(Cl)c2)c2ccccc21 [SERTRALINE HYDROCHLORIDE],> 50,> 50,> 50,> 50,22.7
C[C@@H]1CN(c2c(F)c(N)c3c(=O)c(C(=O)O)cn(C4CC4)c3c2F)C[C@H](C)N1 [SPARFLOXACIN],≤ 0.78,≤ 0.78,≤ 0.78,≤ 0.78,16.6
O=C(CCCN1CCC2(CC1)C(=O)NCN2c1ccccc1)c1ccc(F)cc1 [SPIPERONE],> 50,> 50,> 50,> 50,20.9
OC[C@H]1O[C@H](O[C@]2(CCl)O[C@H](CCl)[C@@H](O)[C@@H]2O)[C@H](O)[C@@H](O)[C@H]1Cl [SUCRALOSE],> 50,≤ 0.78,6.25,≤ 0.78,15
CCCCCCCCNC(C)C(O)c1ccc(SC(C)C)cc1 (stereo not given) [SULOCTIDIL],50,> 50,> 50,1.56,33.3
CC[C@H]1OC(=O)[C@H](C)C(=O)[C@H](C)[C@@H](O[C@@H]2O[C@H](C)C[C@H](N(C)C)[C@H]2O)[C@](C)(OC)C[C@@H](C)C(=O)[C@H](C)[C@H]2N(CCCCn3cnc(-c4cccnc4)c3)C(=O)O[C@]12C [TELITHROMYCIN],> 50,12.5,12.5,≤ 0.78,20.8
CN(C)[C@@H]1C(O)=C(C(N)=O)C(=O)[C@@]2(O)C(O)=C3C(=O)c4c(O)cccc4[C@@](C)(O)[C@H]3C[C@@H]12 [TETRACYCLINE HYDROCHLORIDE],≤ 0.78,12.5,3.13,1.56,7.01
C[CH2][Hg][S]c1ccccc1C(=O)[O-].[Na+] [THIMEROSAL],≤ 0.78,≤ 0.78,≤ 0.78,≤ 0.78,76.7
Oc1cc(Cl)ccc1Oc1ccc(Cl)cc1Cl [TRICLOSAN],≤ 0.78,≤ 0.78,≤ 0.78,1.56,23.5
COc1cc(Cc2cnc(N)nc2N)cc(OC)c1OC [TRIMETHOPRIM],3.13,≤ 0.78,≤ 0.78,≤ 0.78,19.9
O=C(O)CN(CCN(CC(=O)O)CC(=O)O)CC(=O)O.[Na+].[Na+].[Na+] [TRISODIUM ETHYLENEDIAMINE TETRACETATE],1.56,> 50,> 50,≤ 0.78,8.27
CCCCC(=O)N(Cc1ccc(-c2ccccc2-c2nnn[nH]2)cc1)[C@H](C(=O)O)C(C)C [VALSARTAN],> 50,> 50,> 50,> 50,6.04
